# The source made the active and inactive calls. The rule behind the calls is not given here. Bridge positions count the residues as written; N and C are the ends. Square brackets hold non-standard residues; d marks the D form. Peptide text beside a SMILES is read from it. * marks the point of attachment. ξ: configuration not given here. Hexanoyl(4ξ-Me) = CCC(C)CCC(=O)*; dOrn = NCCC[C@@H](N)C(=O)O; Orn = NCCC[C@H](N)C(=O)O
# Tests used:
# Staphylococcus aureus [1] = assay: Bactericidal activity against Staphylococcus aureus ATCC 25923 assessed as assessed as eradication of bacterial cells at 1 to 4 times MIC measured after 0.5 to 1 hr by time killing analysis; type: functional, organism-based; conditions: time 0.5-1 hrs
# Staphylococcus aureus [2] = assay: Bactericidal activity against Staphylococcus aureus ATCC 25923 assessed as assessed as eradication of bacterial cells at 1/2 times MIC measured after 6 hrs by time killing analysis; type: functional, organism-based
# Staphylococcus aureus [3] = assay: Antibacterial activity against Staphylococcus aureus ATCC 25923 pretreated with ZnCl2 followed by compound addition and measured after 2 hrs by broth microdilution method (reference value: 8 microM); type: functional
# [4] = Toxicity in male BALB/c mouse assessed as hemorrhage in liver at 46.88 mg/kg, ip administered as single dose by H and E staining based analysis; type: organism-based; conditions: in vivo
# Staphylococcus aureus [5] = assay: Antibacterial activity against Staphylococcus aureus ATCC 25923 pretreated with Na-cl followed by compound addition and measured after 2 hrs by broth microdilution method (reference value: 8 microM); type: functional
# Staphylococcus aureus [6] = assay: Antibacterial activity against Staphylococcus aureus ATCC 25923 pretreated with 10% mouse serum followed by compound addition and measured after 1 hr by broth microdilution method (reference value: 8 microM); type: functional
# Cell membrane [7] = assay: Induction of outer membrane permeabilization in Pseudomonas aeruginosa ATCC 27853 assessed increase in fluorescence intensity at 1/2 to 4 times MIC measured upto 12 mins by fluorescence based NPN uptake assay; type: cell membranes
# Staphylococcus aureus [8] = assay: Antibacterial activity against Staphylococcus aureus ATCC 25923 assessed as fold increase in MIC pretreated with FeCl3 followed by compound addition and measured after 2 hrs by broth microdilution method; type: functional
# Pseudomonas aeruginosa [9] = assay: Bactericidal activity against Pseudomonas aeruginosa ATCC 27853 assessed as assessed as eradication of bacterial cells at 1/2 to 1 times MIC measured after 0.5 hr by time killing analysis relative to control; type: functional
# Staphylococcus aureus [10] = assay: Antibacterial activity against Staphylococcus aureus ATCC 25923 pretreated with 5% mouse serum followed by compound addition and measured after 6 hrs by broth microdilution method (reference value: 8 microM); type: functional
# Staphylococcus aureus [11] = assay: Antibacterial activity against Staphylococcus aureus ATCC 25923 pretreated with 10% mouse serum followed by compound addition and measured after 6 hrs by broth microdilution method (reference value: 8 microM); type: functional
# Pseudomonas aeruginosa [12] = assay: Induction of morphological changes in Pseudomonas aeruginosa ATCC 27853 assessed as aggregation at 2 times MIC measured after 0.5 hrs by SEM based analysis; type: functional, organism-based
# Cell membrane [13] = assay: Induction of cytoplasmic membrane depolarization in Staphylococcus aureus ATCC 25923 assessed as increase in fluorescence intensity measured upto 12 min by DiSC3-5 dye based fluorescence method; type: cell membranes
# Staphylococcus aureus [14] = assay: Antibacterial activity against Staphylococcus aureus ATCC 25923 pretreated with Kcl followed by compound addition and measured after 2 hrs by broth microdilution method (reference value: 8 microM); type: functional
# Pseudomonas aeruginosa [15] = assay: Induction of morphological changes in Pseudomonas aeruginosa ATCC 27853 assessed as adhesion at 2 times MIC measured after 0.5 hrs by SEM based analysis; type: functional, organism-based
# [16] = Toxicity in male BALB/c mouse assessed as survival rate at 132.7 mg/kg, ip measured after 6 days relative to control; type: organism-based; conditions: in vivo, time 6 day
# Pseudomonas aeruginosa [17] = assay: Antibacterial activity against Pseudomonas aeruginosa ATCC 27853 assessed as fold increase in MIC pretreated with 2.5 to 20% mouse serum followed by compound addition and measured after 6 hr by broth microdilution method; type: functional
# Staphylococcus aureus [18] = assay: Antibacterial activity against Staphylococcus aureus ATCC 25923 assessed as fold increase in MIC pretreated with Na-cl followed by compound addition and measured after 2 hrs by broth microdilution method; type: functional
# Staphylococcus aureus [19] = assay: Induction of morphological changes in Staphylococcus aureus ATCC 25923 assessed as membrane rupture at 2 times MIC measured after 0.5 hrs by SEM based analysis; type: functional, organism-based
# Staphylococcus aureus [20] = assay: Antibacterial activity against Staphylococcus aureus ATCC 25923 pretreated with 2.5% mouse serum followed by compound addition and measured after 1 hr by broth microdilution method (reference value: 64 microM); type: functional
# Pseudomonas aeruginosa [21] = assay: Bactericidal activity against Pseudomonas aeruginosa ATCC 27853 assessed as assessed as eradication of bacterial cells at 1/2 to 1 times MIC measured after 1 hr by time killing analysis relative to control; type: functional
# Staphylococcus aureus [22] = assay: Antibacterial activity against Staphylococcus aureus ATCC 25923 pretreated with 5% mouse serum followed by compound addition and measured after 1 hr by broth microdilution method (reference value: 64 microM); type: functional
# Cell membrane [23] = assay: Induction of outer membrane permeabilization in Pseudomonas aeruginosa ATCC 27853 assessed increase in fluorescence intensity at 1 MIC measured upto 12 mins by fluorescence based NPN uptake assay; type: cell membranes
# Staphylococcus aureus [24] = assay: Antibacterial activity against Staphylococcus aureus ATCC 25923 pretreated with 20% mouse serum followed by compound addition and measured after 1 hr by broth microdilution method (reference value: 64 microM); type: functional
# Cell membrane [25] = assay: Induction of cytoplasmic membrane depolarization in Pseudomonas aeruginosa ATCC 27853 assessed as increase in fluorescence intensity at 4 times MIC measured upto 12 min by DiSC3-5 dye based fluorescence method; type: cell membranes
# Staphylococcus aureus [26] = assay: Antibacterial activity against Staphylococcus aureus ATCC 25923 pretreated with FeCl3 followed by compound addition and measured after 2 hrs by broth microdilution method (reference value: 16 microM); type: functional, organism-based
# Staphylococcus aureus [27] = assay: Antibacterial activity against Staphylococcus aureus ATCC 25923 pretreated with 5% mouse serum followed by compound addition and measured after 1 hr by broth microdilution method (reference value: 16 microM); type: functional, organism-based
# Staphylococcus aureus [28] = assay: Antibacterial activity against Staphylococcus aureus ATCC 25923 pretreated with ZnCl2 followed by compound addition and measured after 2 hrs by broth microdilution method (reference value: 16 microM); type: functional, organism-based
# Staphylococcus aureus [29] = assay: Antibacterial activity against Staphylococcus aureus ATCC 25923 pretreated with 20% mouse serum followed by compound addition and measured after 6 hrs by broth microdilution method (reference value: 16 microM); type: functional, organism-based
# Staphylococcus aureus [30] = assay: Antibacterial activity against Staphylococcus aureus ATCC 25923 pretreated with 2.5% mouse serum followed by compound addition and measured after 1 hrs by broth microdilution method (reference value: 16 microM); type: functional, organism-based
# Staphylococcus aureus [31] = assay: Antibacterial activity against Staphylococcus aureus ATCC 25923 pretreated with 20% mouse serum followed by compound addition and measured after 1 hr by broth microdilution method (reference value: 16 microM); type: functional, organism-based
# Pseudomonas aeruginosa [32] = assay: Bactericidal activity against Pseudomonas aeruginosa ATCC 27853 assessed as assessed as eradication of bacterial cells at 2 to 4 times MIC measured after 0.5 hr by time killing analysis relative to control; type: functional, organism-based
# Pseudomonas aeruginosa [33] = assay: Antibiofilm activity against Pseudomonas aeruginosa ATCC 27853 assessed as biofilm eradication at 1/2 to 4 times MIC measured after 24 hrs by crystal violet staining based analysis; type: functional, organism-based
# Staphylococcus aureus [34] = assay: Antibacterial activity against Staphylococcus aureus ATCC 25923 pretreated with 5% mouse serum followed by compound addition and measured after 6 hrs by broth microdilution method (reference value: 16 microM); type: functional, organism-based
# Staphylococcus aureus [35] = assay: Antibacterial activity against Staphylococcus aureus ATCC 25923 at sub-MIC measured after 6 days; type: functional, organism-based; conditions: time 6.0 day
compound,measurement,setting,value
CCCCCCCCCC(=O)N[C@H](CCCN)C(=O)N[C@H](Cc1ccc(O)cc1)C(=O)N[C@H](Cc1c[nH]c2ccccc12)C(=O)N[C@H](CCCN)C(=O)N[C@@H](CCCN)C(=O)NCC(=O)N[C@H](CCCN)C(=O)N[C@@H](Cc1c[nH]c2ccccc12)C(=O)N[C@H](C(=O)N[C@H](C(=O)NCC(=O)N[C@@H](CO)C(=O)O)[C@@H](C)CC)[C@@H](C)O,Activity,Staphylococcus aureus [1],Active
same,Activity,Staphylococcus aureus [2],Active
same,MIC,Staphylococcus aureus [3],32 µM
same,Activity,[4],Toxic
same,MIC,Staphylococcus aureus [5],16 µM
same,MIC,Staphylococcus aureus [6],32 µM
same,Activity,Cell membrane [7],inactive
same,fold change (FC),Staphylococcus aureus [8],2
same,Activity,Pseudomonas aeruginosa [9],100%
same,MIC,Staphylococcus aureus [10],16 µM
same,MIC,Staphylococcus aureus [11],32 µM
same,Activity,Pseudomonas aeruginosa [12],Active
same,Activity,Cell membrane [13],Dose-Dependent Effect
same,MIC,Staphylococcus aureus [14],8 µM
same,Activity,Pseudomonas aeruginosa [15],Active
same,survival at 144 h,[16],0%
CCC(C)CCC(=O)N[C@H](CC(N)=O)C(=O)N[C@H](Cc1ccc(O)cc1)C(=O)N[C@H](Cc1c[nH]c2ccccc12)C(=O)N[C@H](CCCN)C(=O)N[C@@H](CCCN)C(=O)NCC(=O)N[C@H](CCCN)C(=O)N[C@@H](Cc1c[nH]c2ccccc12)C(=O)N[C@@H]1C(=O)N[C@@H]([C@@H](C)CC)C(=O)NCC(=O)N[C@@H](CO)C(=O)O[C@@H]1C (stereo not given in full) ({Hexanoyl(4ξ-Me)}-[dN][dY][dW][dOrn][Orn]G[dOrn]WTIGS; ester 9-C),fold change (FC),Pseudomonas aeruginosa [17],4
same,fold change (FC),Staphylococcus aureus [18],2
same,Activity,Staphylococcus aureus [19],Active
same,MIC,Staphylococcus aureus [20],64 µM
same,Activity,Pseudomonas aeruginosa [21],100%
same,MIC,Staphylococcus aureus [22],64 µM
same,Activity,Cell membrane [23],Active
same,MIC,Staphylococcus aureus [24],128 µM
POLYMYXIN B,Activity,Cell membrane [25],inactive
same,MIC,Staphylococcus aureus [26],8 µM
same,MIC,Staphylococcus aureus [27],16 µM
same,MIC,Staphylococcus aureus [28],32 µM
same,MIC,Staphylococcus aureus [29],16 µM
same,MIC,Staphylococcus aureus [30],16 µM
same,MIC,Staphylococcus aureus [31],16 µM
same,Activity,Pseudomonas aeruginosa [32],100%
same,Activity,Pseudomonas aeruginosa [33],Active
same,MIC,Staphylococcus aureus [34],16 µM
same,Activity,Staphylococcus aureus [35],inactive

# — ChEMBL document CHEMBL5512645, “A novel antimicrobial peptide with broad-spectrum and exceptional stability derived from the natural peptide Brevicidine” (Eur J Med Chem, 2024)
